Columns and labels:
[1] = AUC (0 to 24 hrs) in African green monkey blood at 25 mg/kg administered as iv infusion twice daily for 7 consecutive days measured on day 1 by LC-MS/MS analysis; assay type: ADME, organism-based; parameters: dose 25 mg/kg, time < 24 hr, route intravenous; details: chlorocebus aethiops
[2] = system: Yersinia pestis; experiment: (§1) Antibacterial activity against Yersinia pestis Colorado 92 infected in African green monkey B6415 model assessed as bacterial burden in lung at 25 mg/kg, iv administered within 6 hrs post onset of sustained fever as 30 mins infusion for 5 days (reference value: 7.7 10^8CFU/g); assay type: functional, CO92
[3] = system: African green monkey; experiment: Toxicity in African green monkey 8067 model infected with Yersinia pestis Colorado 92 assessed as serum creatinine level at 25 mg/kg, iv administered within 6 hrs post onset of sustained fever as 30 mins infusion for 10 days (reference value: 0.8 mg/dl); assay type: organism-based; details: chlorocebus sabaeus, in vivo
[4] = system: Yersinia pestis; experiment: as §1, with “B6889” for “B6415”, “tracheobronchial lymph nodes” for “lung”, “6.25” for “25”, “10^9CFU/g)” for “10^8CFU/g)”; assay type: functional, CO92, Lymph node
[5] = system: Yersinia pestis; experiment: Antibacterial activity against Yersinia pestis Colorado 92 infected in African green monkey assessed as survival of monkey at 12.5 mg/kg, iv administered within 6 hrs post onset of sustained fever as 30 mins infusion for 5 days; assay type: functional; details: CO92, iv
[6] = system: Yersinia pestis; experiment: Antibacterial activity against Yersinia pestis Colorado 92 infected in African green monkey B6861 model assessed as bacterial burden in kidney at 6.25 mg/kg, iv administered within 6 hrs post onset of sustained fever as 30 mins infusion for 5 days (reference value: 7.1 10^7CFU/g); assay type: functional, CO92
[7] = system: African green monkey; experiment: Toxicity in African green monkey B6291 model infected with Yersinia pestis Colorado 92 assessed as serum lactate dehydrogenase level at 25 mg/kg, iv administered within 6 hrs post onset of sustained fever as 30 mins infusion for 10 days (reference value: 212 IU/L); assay type: organism-based; details: chlorocebus sabaeus, in vivo
[8] = Toxicity in African green monkey B6291 model infected with Yersinia pestis Colorado 92 assessed as total white blood cell count at 25 mg/kg, iv administered within 6 hrs post onset of sustained fever as 30 mins infusion for 10 days (reference value: 12 10^3/microL); assay type: organism-based; details: chlorocebus aethiops, in vivo
[9] = system: African green monkey; experiment: Toxicity in African green monkey 7653 model infected with Yersinia pestis Colorado 92 assessed as blood urea nitrogen level at 25 mg/kg, iv administered within 6 hrs post onset of sustained fever as 30 mins infusion for 10 days (reference value: 22 mg/dl); assay type: organism-based; details: chlorocebus sabaeus, in vivo
[10] = system: Yersinia pestis; experiment: Antibacterial activity against Yersinia pestis Colorado 92 infected in African green monkey 8047 model assessed as bacterial burden in kidney at 6.25 mg/kg, iv administered within 6 hrs post onset of sustained fever as 30 mins infusion for 10 days (reference value: 7.1 10^7CFU/g); assay type: functional, CO92
[11] = system: African green monkey; experiment: Toxicity in African green monkey 8067 model infected with Yersinia pestis Colorado 92 assessed as serum lactate dehydrogenase level at 25 mg/kg, iv administered within 6 hrs post onset of sustained fever as 30 mins infusion for 10 days (reference value: 287 IU/L); assay type: organism-based; details: chlorocebus sabaeus, in vivo
[12] = system: Yersinia pestis; experiment: Antibacterial activity against Yersinia pestis Colorado 92 infected in African green monkey B6872 model assessed as bacterial burden in kidney at 25 mg/kg, iv administered within 6 hrs post onset of sustained fever as 30 mins infusion for 5 days (reference value: 7.1 10^7CFU/g); assay type: functional, organism-based; details: CO92
[13] = system: African green monkey; experiment: Toxicity in African green monkey 7929 model infected with Yersinia pestis Colorado 92 assessed as serum creatinine level at 25 mg/kg, iv administered within 6 hrs post onset of sustained fever as 30 mins infusion for 10 days (reference value: 1 mg/dl); assay type: organism-based; details: chlorocebus sabaeus, in vivo
[14] = system: Yersinia pestis; experiment: as §1, with “B6672” for “B6415”, “tracheobronchial lymph nodes” for “lung”, “12.5” for “25”, “10^9CFU/g)” for “10^8CFU/g)”; assay type: functional, CO92, Lymph node
[15] = system: African green monkey; experiment: Toxicity in African green monkey B6428 model infected with Yersinia pestis Colorado 92 assessed as serum alanine aminotransferase level at 25 mg/kg, iv administered within 6 hrs post onset of sustained fever as 30 mins infusion for 10 days (reference value: 83 IU/L); assay type: organism-based; details: chlorocebus sabaeus, in vivo
[16] = system: Yersinia pestis; experiment: Antibacterial activity against Yersinia pestis Colorado 92 infected in African green monkey B6106 model assessed as bacterial burden in spleen at 25 mg/kg, iv administered within 6 hrs post onset of sustained fever as 30 mins infusion for 5 days (reference value: 1.6 10^9CFU/g); assay type: functional, CO92
[17] = system: Yersinia pestis; experiment: Antibacterial activity against Yersinia pestis Colorado 92 infected in African green monkey B6873 model assessed as bacterial burden in heart at 12.5 mg/kg, iv administered within 6 hrs post onset of sustained fever as 30 mins infusion for 5 days (reference value: 2.6 10^7CFU/g); assay type: functional, organism-based; details: CO92
[18] = system: Yersinia pestis; experiment: Antibacterial activity against Yersinia pestis Colorado 92 infected in African green monkey B6783 model assessed as bacterial burden in kidney at 12.5 mg/kg, iv administered within 6 hrs post onset of sustained fever as 30 mins infusion for 5 days (reference value: 7.1 10^7CFU/g); assay type: functional, CO92
[19] = system: Yersinia pestis; experiment: Antibacterial activity against Yersinia pestis Colorado 92 infected in African green monkey B6106 model assessed as bacterial burden in tracheobronchial lymph nodes at 25 mg/kg, iv administered within 6 hrs post onset of sustained fever as 30 mins infusion for 5 days (reference value: 7.7 10^9CFU/g); assay type: functional, organism-based; details: CO92, Lymph node
[20] = system: Yersinia pestis; experiment: Antibacterial activity against Yersinia pestis Colorado 92 infected in African green monkey B6960 model assessed as bacterial burden in liver at 6.25 mg/kg, iv administered within 6 hrs post onset of sustained fever as 30 mins infusion for 5 days (reference value: 5.2 10^8CFU/g); assay type: functional, CO92
[21] = AUC (0 to 24 hrs) in African green monkey blood at 25 mg/kg administered as iv infusion twice daily for 7 consecutive days measured on day 7 by LC-MS/MS analysis; assay type: ADME, organism-based; parameters: time < 24 hr, dose 25 mg/kg, route intravenous; details: chlorocebus aethiops
[22] = system: Yersinia pestis; experiment: Antibacterial activity against Yersinia pestis Colorado 92 infected in African green monkey assessed as survival of monkey at 25 mg/kg, iv administered within 6 hrs post onset of sustained fever as 30 mins infusion for 5 days; assay type: functional; details: CO92, iv
[23] = system: African green monkey; experiment: Toxicity in African green monkey 7653 model infected with Yersinia pestis Colorado 92 assessed as serum creatinine level at 25 mg/kg, iv administered within 6 hrs post onset of sustained fever as 30 mins infusion for 10 days (reference value: 0.6 mg/dl); assay type: organism-based; details: chlorocebus sabaeus, in vivo
[24] = system: African green monkey; experiment: Toxicity in African green monkey B6140 model infected with Yersinia pestis Colorado 92 assessed as serum gamma glutamyl-transferase level at 25 mg/kg, iv administered within 6 hrs post onset of sustained fever as 30 mins infusion for 10 days (reference value: 55 IU/L); assay type: organism-based; details: chlorocebus sabaeus, in vivo
[25] = system: African green monkey; experiment: Toxicity in African green monkey 7337 model infected with Yersinia pestis Colorado 92 assessed as serum lactate dehydrogenase level at 25 mg/kg, iv administered within 6 hrs post onset of sustained fever as 30 mins infusion for 10 days (reference value: 310 IU/L); assay type: organism-based; details: chlorocebus sabaeus, in vivo
[26] = system: Yersinia pestis; experiment: Antibacterial activity against Yersinia pestis Colorado 92 infected in African green monkey B6873 model assessed as bacterial burden in kidney at 12.5 mg/kg, iv administered within 6 hrs post onset of sustained fever as 30 mins infusion for 5 days (reference value: 7.1 10^7CFU/g); assay type: functional, organism-based; details: CO92

## CN[C@@H]1[C@@H](O)[C@@H](O[C@@H]2[C@@H](O)[C@H](O[C@H]3OC(CNCCO)=CC[C@H]3N)[C@@H](N)C[C@H]2NC(=O)[C@@H](O)CCN)OC[C@]1(C)O [PLAZOMICIN]
[1]
  AUC(0-t) at 24 h: 185 µg·h/mL
[2]
  Activity: 3.2 ×10⁹ CFU/g
[3]
  Activity: 0.8 mg/dL
[4]
  Activity: 3.6 ×10⁹ CFU/g
[5]
  survival at 12.5 mg/kg: 33%
[6]
  Activity: 11 CFU/g
[7]
  Activity: 259 IU/L
[8]
  Activity: 5.9 ×10³ /uL
[9]
  Activity: 26 mg/dL
[10]
  Activity: 32 CFU/g
[11]
  Activity: 478 IU/L
[12]
  Activity: Below limit of detection
[13]
  Activity: 0.9 mg/dL
[14]
  Activity: 8.3 ×10⁶ CFU/g
[15]
  Activity: 60 IU/L
[16]
  Activity: 31 CFU/g
[17]
  Activity: Below limit of detection
[18]
  Activity: 76 CFU/g
[19]
  Activity: Below limit of detection
[20]
  Activity: 38 CFU/g
[21]
  AUC at 24 h: 208 µg·h/mL
[22]
  survival at 25 mg/kg: 69%
[23]
  Activity: 0.8 mg/dL
[24]
  Activity: 39 IU/L
[25]
  Activity: 469 IU/L
[26]
  Activity: Below limit of detection

Reference: ChEMBL document CHEMBL3868595, “Plazomicin is effective in a non-human primate pneumonic plague model” (Bioorg Med Chem, 2016)
